Measurements published in patent EP0148283A1, “Novel penicillanic acid derivatives” (F. HOFFMANN-LA ROCHE & CO. Aktiengesellschaft, priority 1983, dated 1985).
In brackets after ≈: the same amount, converted by molar mass. Counter-ions that a name gives are not always drawn. Like-named read-outs stand apart in the source and are kept apart here.

How the values were obtained:
Experiment in all cases: In vitro antibacterial activity, MIC by broth dilution in 96-well trays
Type in all cases: cell-based
E. aerogenes = settings: Klebsiella aerogenes
Procedure: (§1) The in vitro antibacterial activity of the following compounds:
(§2) The diluted agents are dispensed in 100 µl amounts into the wells of a 96-well tray and used immediately or frozen at -10 to -70°C until needed. Using an automated inoculator, 1.5 µl of a 10^-2 dilution of an overnight culture is added to each well of the tray. The tops of the trays are then sealed using transparent tape and incubated overnight at 37°C. The trays are examined with the aid of a viewer. The lowest concentration at which no growth is observed is considered to be the minimum inhibitory concentration (MIC). [formula] [formula] [formula] [formula] [formula] [formula] [formula] [formula] [formula] [formula] [formula]

K. pneumoniae = settings: Klebsiella pneumoniae
Procedure: as §1, §2

E. coli = settings: Escherichia coli
Procedure: as §1, §2

P. vulgaris = settings: Proteus vulgaris
Procedure: as §1, §2

S. schottmuelleri = test system: S. schottmuelleri
Procedure: as §1, §2

P. rettgeri = settings: Providencia rettgeri, ATCC9250; P. rettgeri strain ATCC 9250
Procedure: as §1, §2

E. cloacae = settings: Enterobacter cloacae
Procedure: as §1, §2

S. marcescens = test system: S. marcescens
Procedure: as §1, §2

P. mirabilis = settings: Proteus mirabilis
Procedure: as §1, §2

C. freundii = settings: Citrobacter freundii
Procedure: as §1, §2

S. typhi P58A = settings: Salmonella enterica
Procedure: as §1, §2

C. diversus = settings: Citrobacter koseri; C. diversus strain CDC 1663-72
Procedure: as §1, §2

S. faecalis = settings: Enterococcus faecalis; S. faecalis C1
Procedure: as §1, §2

S. pneumoniae = settings: Streptococcus pneumoniae
Procedure: as §1, §2

S. pyogenes = settings: Streptococcus pyogenes
Procedure: as §1, §2

P.aeruginosa = settings: Pseudomonas aeruginosa
Procedure: as §1, §2

S. aureus = settings: Staphylococcus aureus
Procedure: as §1, §2

CC1(C)S[C@@H]2[C@H](/N=C/N3CCCCCC3)C(=O)N2[C@H]1C(=O)O [Amdinocillin]
MIC (E. aerogenes): 128 µg/mL (≈ 393 µM) | MIC (E. aerogenes; E. aerogenes strain 83, read-out: MIC): 8 µg/mL (≈ 24.6 µM) | MIC (E. aerogenes; E. aerogenes strain 503-478, read-out: MIC): 4 µg/mL (≈ 12.3 µM) | MIC (K. pneumoniae; K. pneumoniae strain 35): 0.125 µg/mL (≈ 0.384 µM) | MIC (K. pneumoniae; K. pneumoniae strain 503-964): 0.125 µg/mL (≈ 0.384 µM) | MIC (K. pneumoniae; K. pneumoniae strain 503-994, read-out: MIC): 0.062 µg/mL (≈ 0.191 µM) | MIC (K. pneumoniae; K. pneumoniae strain 4964, read-out: MIC): 64 µg/mL (≈ 197 µM) | MIC (K. pneumoniae; K. pneumoniae strain 5096): 128 µg/mL (≈ 393 µM) | MIC (K. pneumoniae; K. pneumoniae strain 8357, read-out: MIC): 0.25 µg/mL (≈ 0.768 µM) | MIC (K. pneumoniae; K. pneumoniae strain A, read-out: MIC): 0.031 µg/mL (≈ 0.0953 µM) | MIC (K. pneumoniae; K. pneumoniae strain HE7, read-out: MIC): > 128 µg/mL | MIC (E. coli; E. coli strain 4): 0.062 µg/mL (≈ 0.191 µM) | MIC (E. coli; E. coli strain 48): 0.062 µg/mL (≈ 0.191 µM) | MIC (E. coli; E. coli strain 257): 0.125 µg/mL (≈ 0.384 µM) | MIC (E. coli; E. coli strain 387-1): 0.031 µg/mL (≈ 0.0953 µM) | MIC (E. coli; E. coli strain 503-455): 2 µg/mL (≈ 6.15 µM) | MIC (E. coli; E. coli strain 5152): 8 µg/mL (≈ 24.6 µM) | MIC (E. coli; E. coli strain R-563): 0.125 µg/mL (≈ 0.384 µM) | MIC (P. vulgaris; ATCC6380, P. vulgaris strain ATCC 6380): 0.031 µg/mL (≈ 0.0953 µM) | MIC (P. vulgaris; P. vulgaris strain 100): 0.5 µg/mL (≈ 1.54 µM) | MIC (P. vulgaris; P. vulgaris strain 101): 64 µg/mL (≈ 197 µM) | MIC (S. schottmuelleri): 0.062 µg/mL (≈ 0.191 µM) | MIC (P. rettgeri): 0.125 µg/mL (≈ 0.384 µM) | MIC (E. cloacae; E. cloacae strain 24): 0.125 µg/mL (≈ 0.384 µM) | MIC (E. cloacae; E. cloacae strain 214): 0.125 µg/mL (≈ 0.384 µM) | MIC (E. cloacae; E. cloacae strain 5699): 0.25 µg/mL (≈ 0.768 µM) | MIC (E. cloacae; E. cloacae strain 6951): 16 µg/mL (≈ 49.2 µM) | MIC (E. cloacae; E. cloacae strain 9295): 0.25 µg/mL (≈ 0.768 µM) | MIC (E. cloacae; E. cloacae strain 9570A): 0.125 µg/mL (≈ 0.384 µM) | MIC (E. cloacae; E. cloacae strain P99): 0.062 µg/mL (≈ 0.191 µM) | MIC (S. marcescens; S. marcescens strain S3): 0.125 µg/mL (≈ 0.384 µM) | MIC (S. marcescens; S. marcescens strain S147): 0.125 µg/mL (≈ 0.384 µM) | MIC (S. marcescens; Serratia marcescens): 0.125 µg/mL (≈ 0.384 µM) | MIC (S. marcescens; Serratia marcescens, S. marcescens strain 5805, read-out: MIC): 1 µg/mL (≈ 3.07 µM) | MIC (S. marcescens; Serratia marcescens, S. marcescens strain S1, read-out: MIC): 0.25 µg/mL (≈ 0.768 µM) | MIC (S. marcescens; Serratia marcescens, S. marcescens strain S2, read-out: MIC): 0.25 µg/mL (≈ 0.768 µM) | MIC (S. marcescens; Serratia marcescens, S. marcescens strain S4, read-out: MIC): 1 µg/mL (≈ 3.07 µM) | MIC (S. marcescens; Serratia marcescens, S. marcescens strain S5, read-out: MIC): 1 µg/mL (≈ 3.07 µM) | MIC (S. marcescens; Serratia marcescens, S. marcescens strain S714, read-out: MIC): 0.5 µg/mL (≈ 1.54 µM) | MIC (P. mirabilis): 0.125 µg/mL (≈ 0.384 µM) | MIC (P. mirabilis; P. mirabilis strain 2, read-out: MIC): 0.25 µg/mL (≈ 0.768 µM) | MIC (P. mirabilis; P. mirabilis strain 90, read-out: MIC): 0.25 µg/mL (≈ 0.768 µM) | MIC (P. mirabilis; P. mirabilis strain 503-1136, read-out: MIC): 2 µg/mL (≈ 6.15 µM) | MIC (P. mirabilis; P. mirabilis strain 620A, read-out: MIC): 64 µg/mL (≈ 197 µM) | MIC (C. freundii; C. freundii strain CDC6): 0.125 µg/mL (≈ 0.384 µM) | MIC (C. freundii; C. freundii strain 8ASM, read-out: MIC): 0.062 µg/mL (≈ 0.191 µM) | MIC (S. typhi P58A): 0.062 µg/mL (≈ 0.191 µM) | MIC (C. diversus): 0.062 µg/mL (≈ 0.191 µM)

CC1(C)S[C@@H]2[C@H](N=CN3CCC(CC4=NCCCN4)CC3)C(=O)N2[C@H]1C(=O)O [Compound U, [2S-(2alpha,5alpha,6beta)]-6-[[[4-[(1,4,5,6-tetrahydro-2-pyrimidinyl)methyl]-1-piperidinyl]-methylene]amino]-3,3-dimethyl-7-oxo-4-thia-1-azabicyclo[3.2.0]heptane-2-carboxylic acid hydrochloride]
MIC (S. faecalis): 128 µg/mL | MIC (S. pneumoniae; S. pneumoniae strain 6301): 2 µg/mL | MIC (S. pneumoniae; S. pneumoniae strain 6302): 4 µg/mL | MIC (S. pneumoniae; S. pneumoniae strain SC): 4 µg/mL | MIC (S. pyogenes; S. pyogenes strain 4): 4 µg/mL | MIC (S. pyogenes; S. pyogenes strain 503-782): > 128 µg/mL | MIC (P.aeruginosa; P.aeruginosa strain 503-56): 64 µg/mL | MIC (P.aeruginosa; P.aeruginosa strain 503-820): > 128 µg/mL | MIC (P.aeruginosa; P.aeruginosa strain 5700): 0.5 µg/mL | MIC (P.aeruginosa; P.aeruginosa strain 5712): > 128 µg/mL | MIC (P.aeruginosa; P.aeruginosa strain 6148B): 128 µg/mL | MIC (P.aeruginosa; P.aeruginosa strain 8710): > 128 µg/mL | MIC (P.aeruginosa; P.aeruginosa strain 8780): > 128 µg/mL | MIC (P.aeruginosa; P.aeruginosa strain B): 9.5 µg/mL | MIC (P.aeruginosa; P.aeruginosa strain POW 151): > 128 µg/mL | MIC (P.aeruginosa; P.aeruginosa strain Stone 130): > 128 µg/mL | MIC (S. aureus; S. aureus strain 1059B): > 128 µg/mL | MIC (S. aureus; S. aureus strain Giorgio): 8 µg/mL | MIC (S. aureus; S. aureus strain Smith): 8 µg/mL

CC1(C)S[C@@H]2[C@H](N=CN3CCCC(c4ncc[nH]4)C3)C(=O)N2[C@H]1C(=O)O (stereo partly drawn) [P, [2S-(2alpha,5alpha,6beta)]-6-[[[3-(1H-imidazol-2-yl)-1-piperidinyl]methylene]amino]-3,3-dimethyl-7-oxo-4-thia-1-azabicyclo[3.2.0]heptane-2-car-boxylic acid hydrochloride]
MIC (S. faecalis): 64 µg/mL | MIC (S. pneumoniae; S. pneumoniae strain 6301): 1 µg/mL | MIC (S. pneumoniae; S. pneumoniae strain 6302): 1 µg/mL | MIC (S. pneumoniae; S. pneumoniae strain SC): 1 µg/mL | MIC (S. pyogenes; S. pyogenes strain 4): 0.5 µg/mL | MIC (S. pyogenes; S. pyogenes strain 503-782): 64 µg/mL | MIC (P.aeruginosa; P.aeruginosa strain 503-56): > 128 µg/mL | MIC (P.aeruginosa; P.aeruginosa strain 503-820): > 128 µg/mL | MIC (P.aeruginosa; P.aeruginosa strain 5700): 8 µg/mL | MIC (P.aeruginosa; P.aeruginosa strain 5712): > 128 µg/mL | MIC (P.aeruginosa; P.aeruginosa strain 6148B): > 128 µg/mL | MIC (P.aeruginosa; P.aeruginosa strain 8710): > 128 µg/mL | MIC (P.aeruginosa; P.aeruginosa strain 8780): > 128 µg/mL | MIC (P.aeruginosa; P.aeruginosa strain B): 8 µg/mL | MIC (P.aeruginosa; P.aeruginosa strain POW 151): > 128 µg/mL | MIC (P.aeruginosa; P.aeruginosa strain Stone 130): > 128 µg/mL | MIC (S. aureus; S. aureus strain 1059B): 64 µg/mL | MIC (S. aureus; S. aureus strain Giorgio): 4 µg/mL | MIC (S. aureus; S. aureus strain Smith): 2 µg/mL
